System: MCF7
Assay: Cell cycle arrest in human MCF7 cells assessed as accumulation at G2/M phase at 11.33 uM after 48 hrs by propidium iodide staining based flow cytometry (reference value: 19.8 %)
Assay type: functional

In the case of CC1(C)CC[C@]2(C(=O)O)CC[C@]3(C)C(=CC[C@@H]4[C@@]5(C)CC[C@H](O[C@@H]6O[C@H](C(=O)O)[C@@H](O)[C@H](O)[C@H]6O)C(C)(C)[C@@H]5CC[C@]43C)[C@@H]2C1, the Activity is reported as 17%.

Reference: ChEMBL document CHEMBL3817761, “Chenopodium album metabolites act as dual topoisomerase inhibitors and induce apoptosis in the MCF7 cell line” (Medchemcomm, 2016)
